Test results taken from PubChem BioAssay (NCI).
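Five compound concentrations were applied to cells in 96-well plates for 48 hours; endpoints were derived by simple linear interpolation of the resulting dose-response curve. TGI marks complete inhibition of growth.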

Key:
Test in all cases: NCI anticancer screen, dose series, 48 h
DMS 273 small cell lung = system: DMS 273 small cell lung
NCI-H226 lung = system: NCI-H226 lung
HT29 colon = system: HT29 colon
LOX IMVI melanoma = system: LOX IMVI melanoma
SF-268 CNS = system: SF-268 CNS
UACC-257 melanoma = system: UACC-257 melanoma
HOP-92 NSCLC = system: HOP-92 NSCLC
SF-539 CNS = system: SF-539 CNS
SK-OV-3 ovarian = system: SK-OV-3 ovarian
SNB-19 CNS = system: SNB-19 CNS
SN12C renal = system: SN12C renal
NCI-H23 lung = system: NCI-H23 lung
OVCAR-8 ovarian = system: OVCAR-8 ovarian
HL-60(TB) leukemia = system: HL-60(TB) leukemia
SK-MEL-2 melanoma = system: SK-MEL-2 melanoma
SK-MEL-5 melanoma = system: SK-MEL-5 melanoma
NCI-H460 lung = system: NCI-H460 lung
RPMI-8226 leukemia = system: RPMI-8226 leukemia
DMS 114 small cell lung = system: DMS 114 small cell lung
U251 CNS = system: U251 CNS
RXF-631 renal = system: RXF-631 renal
OVCAR-3 ovarian = system: OVCAR-3 ovarian
HCC-2998 colon = system: HCC-2998 colon
LXFL 529 NSCLC = system: LXFL 529 NSCLC
TK-10 renal = system: TK-10 renal
HCT-116 colon = system: HCT-116 colon
MALME-3M melanoma = system: MALME-3M melanoma
HCT-15 colon = system: HCT-15 colon
A549 NSCLC = system: A549 NSCLC
786-0 renal = system: 786-0 renal
SW-620 colon = system: SW-620 colon
SK-MEL-28 melanoma = system: SK-MEL-28 melanoma
K-562 leukemia = system: K-562 leukemia
ACHN renal = system: ACHN renal
SF-295 CNS = system: SF-295 CNS
EKVX NSCLC = system: EKVX NSCLC
SR leukemia = system: SR leukemia
DLD-1 colon = system: DLD-1 colon
COLO 205 colon = system: COLO 205 colon
UACC-62 melanoma = system: UACC-62 melanoma
CCRF-CEM leukemia = system: CCRF-CEM leukemia
KM20L2 colon = system: KM20L2 colon
MOLT-4 leukemia = system: MOLT-4 leukemia
IGROV1 ovarian = system: IGROV1 ovarian
KM12 colon = system: KM12 colon
NCI-H522 lung = system: NCI-H522 lung
CAKI-1 renal = system: CAKI-1 renal
HOP-62 NSCLC = system: HOP-62 NSCLC
RXF 393 renal = system: RXF 393 renal
M14 melanoma = system: M14 melanoma
OVCAR-4 ovarian = system: OVCAR-4 ovarian
NCI/ADR-RES ovarian = system: NCI/ADR-RES ovarian
OVCAR-5 ovarian = system: OVCAR-5 ovarian
HS 578T breast = system: HS 578T breast
SNB-78 CNS = system: SNB-78 CNS
PC-3 prostate = system: PC-3 prostate
MCF7 breast = system: MCF7 breast
M19-MEL melanoma = system: M19-MEL melanoma
DU-145 prostate = system: DU-145 prostate
MDA-MB-435 = system: MDA-MB-435
A498 renal = system: A498 renal
MDA-MB-231 breast = system: MDA-MB-231 breast
SNB-75 CNS = system: SNB-75 CNS
HOP-18 NSCLC = system: HOP-18 NSCLC
XF 498 CNS = system: XF 498 CNS
T-47D breast = system: T-47D breast
UO-31 renal = system: UO-31 renal

Cn1c2c(c3ccccc31)C1C(=O)N(c3ccccc3)C(=O)C1CC2 (stereo not given)
TGI (DMS 273 small cell lung): > 303 µM
TGI (NCI-H226 lung): > 303 µM
TGI (HT29 colon): > 303 µM
TGI (LOX IMVI melanoma): > 303 µM
TGI (SF-268 CNS): > 303 µM
TGI (UACC-257 melanoma): > 303 µM
TGI (HOP-92 NSCLC): > 303 µM
TGI (SF-539 CNS): > 303 µM
TGI (SK-OV-3 ovarian): > 303 µM
TGI (SNB-19 CNS): > 303 µM
TGI (SN12C renal): > 303 µM
TGI (NCI-H23 lung): > 303 µM
TGI (OVCAR-8 ovarian): > 303 µM
TGI (HL-60(TB) leukemia): > 303 µM
TGI (SK-MEL-2 melanoma): > 303 µM
TGI (SK-MEL-5 melanoma): > 303 µM
TGI (NCI-H460 lung): > 303 µM
TGI (RPMI-8226 leukemia): > 303 µM
TGI (DMS 114 small cell lung): > 303 µM
TGI (U251 CNS): > 303 µM
TGI (RXF-631 renal): > 303 µM
TGI (OVCAR-3 ovarian): > 303 µM
TGI (HCC-2998 colon): > 303 µM
TGI (LXFL 529 NSCLC): > 303 µM
TGI (TK-10 renal): > 303 µM
TGI (HCT-116 colon): > 303 µM
TGI (MALME-3M melanoma): > 303 µM
TGI (HCT-15 colon): > 303 µM
TGI (A549 NSCLC): > 303 µM
TGI (786-0 renal): > 303 µM
TGI (SW-620 colon): > 303 µM
TGI (SK-MEL-28 melanoma): > 303 µM
TGI (K-562 leukemia): > 303 µM
TGI (ACHN renal): > 303 µM
TGI (SF-295 CNS): > 303 µM
TGI (EKVX NSCLC): > 303 µM
TGI (SR leukemia): > 303 µM
TGI (DLD-1 colon): > 303 µM
TGI (COLO 205 colon): > 303 µM
TGI (UACC-62 melanoma): > 303 µM
TGI (CCRF-CEM leukemia): > 303 µM
TGI (KM20L2 colon): > 303 µM
TGI (MOLT-4 leukemia): > 303 µM
TGI (IGROV1 ovarian): > 303 µM
TGI (KM12 colon): > 303 µM
TGI (NCI-H522 lung): > 303 µM
TGI (CAKI-1 renal): > 303 µM
TGI (HOP-62 NSCLC): > 303 µM
TGI (RXF 393 renal): > 303 µM

COc1cc(/C=C/c2ccc(/C=C/c3cc(OC)c(OC)c(OC)c3)cc2)cc(OC)c1OC
TGI (DMS 273 small cell lung): > 48.9 µM
TGI (NCI-H226 lung): 49.7 µM
TGI (M14 melanoma): > 100 µM
TGI (OVCAR-4 ovarian): 18.1 µM
TGI (HT29 colon): > 61.7 µM
TGI (LOX IMVI melanoma): > 85.8 µM
TGI (SF-268 CNS): 42.5 µM
TGI (UACC-257 melanoma): > 100 µM
TGI (HOP-92 NSCLC): 34.7 µM
TGI (SF-539 CNS): 17.8 µM
TGI (SK-OV-3 ovarian): 22.7 µM
TGI (SNB-19 CNS): 32.6 µM
TGI (SN12C renal): > 100 µM
TGI (NCI/ADR-RES ovarian): > 100 µM
TGI (NCI-H23 lung): 25.2 µM
TGI (OVCAR-5 ovarian): > 100 µM
TGI (OVCAR-8 ovarian): 56.1 µM
TGI (HL-60(TB) leukemia): > 100 µM
TGI (SK-MEL-2 melanoma): 53.9 µM
TGI (SK-MEL-5 melanoma): > 100 µM
TGI (HS 578T breast): 75.5 µM
TGI (NCI-H460 lung): > 82 µM
TGI (RPMI-8226 leukemia): > 100 µM
TGI (SNB-78 CNS): 85 µM
TGI (DMS 114 small cell lung): > 68.2 µM
TGI (U251 CNS): 29.5 µM
TGI (OVCAR-3 ovarian): 77.3 µM
TGI (HCC-2998 colon): > 61.1 µM
TGI (LXFL 529 NSCLC): 35.9 µM
TGI (TK-10 renal): 39.5 µM
TGI (HCT-116 colon): > 100 µM
TGI (PC-3 prostate): > 100 µM
TGI (MALME-3M melanoma): 60.1 µM
TGI (HCT-15 colon): > 100 µM
TGI (MCF7 breast): > 100 µM
TGI (M19-MEL melanoma): > 100 µM
TGI (A549 NSCLC): > 100 µM
TGI (786-0 renal): 20.7 µM
TGI (SW-620 colon): > 100 µM
TGI (SK-MEL-28 melanoma): > 100 µM
TGI (K-562 leukemia): > 100 µM
TGI (ACHN renal): 44.5 µM
TGI (SF-295 CNS): 19.8 µM
TGI (EKVX NSCLC): > 69.1 µM
TGI (SR leukemia): > 100 µM
TGI (DLD-1 colon): > 100 µM
TGI (COLO 205 colon): > 100 µM
TGI (DU-145 prostate): > 100 µM
TGI (MDA-MB-435): > 100 µM
TGI (UACC-62 melanoma): 25.1 µM
TGI (A498 renal): 26.1 µM
TGI (MDA-MB-231 breast): 52.7 µM
TGI (CCRF-CEM leukemia): > 100 µM
TGI (KM20L2 colon): > 76.3 µM
TGI (SNB-75 CNS): 19.5 µM
TGI (MOLT-4 leukemia): > 100 µM
TGI (HOP-18 NSCLC): > 100 µM
TGI (IGROV1 ovarian): > 71.1 µM
TGI (KM12 colon): > 77.4 µM
TGI (NCI-H522 lung): 27.2 µM
TGI (CAKI-1 renal): 72.3 µM
TGI (XF 498 CNS): 31.4 µM
TGI (T-47D breast): 24 µM
TGI (HOP-62 NSCLC): 31.3 µM
TGI (UO-31 renal): > 84.6 µM
TGI (RXF 393 renal): 20.4 µM
